Source: patent US20140158116A1, “INHIBITING TRPA1 FOR THE TREATMENT OF ASTHMA” (Cubist Pharmaceuticals, Inc., priority 2012, published 2014)
Read-outs that look alike come from different tables or passages of the source.

Tests used:
dTRPA1 = dTRPA1 (Canis lupus familiaris, UniProt A0A8I3Q1Q7); experiment: Whole-cell patch clamp block of inward current through dTRPA1; assay type: cell-based, Dog
Protocol: (§1) Data for TRPA1 inhibition and the selectivity of TRPA1 inhibition was obtained by this method for the compound of Formula (Ia) and included in Table 1 and Table 2. All currents were recorded in whole-cell configuration using EPC-9 and EPC-10 amplifiers and Patchmaster software (HEKA). […] The standard pipette solution consisted of 140 mM CsAsp, 10 mM EGTA, 10 mM HEPES, 2.27 mM MgCl2, 1.91 mM CaCl2, 4 mM MgATP, and 0.1-0.3 mM Na2GTP, with pH adjusted to 7.2 with CsOH. In addition, a solution containing 145 mM CsCl, 10 mM HEPES, 10 mM EGTA and 1 mM MgCl2 (pH 7.2 adjusted with CsOH) can be used. The standard bath solution contained 150 mM NaCl, 10 mM HEPES, 10 mM glucose, 4.5 mM KCl, 1 mM EGTA, 3 mM MgCl2, with pH adjusted to 7.4 with NaOH. In some instances, 2 mM CaCl2 was added in place of EGTA and the concentration of MgCl2 was reduced to 1 mM.
(§2) Data were collected either by continuous recordings at −60 mV or by applying voltage ramps from a holding potential of 0 mV every 4 s. Continuous recordings were collected at 400 Hz and digitally filtered off-line at 10 Hz for presentation. Voltage ramps were applied from −100 mV to 100 mV over the course of 400 ms, and data were collected at 10 kHz and filtered at 2.9 kHz. Inward and outward currents were analyzed from the ramps at −80 and 80 mV, respectively. Liquid junction potential correction was not used.
(§3) Solutions were switched using a gravity-fed continuous focal perfusion system. To achieve rapid temperature changes, two temperature control and perfusion systems were employed simultaneously. For temperatures ≧22° C., a Warner Instruments bipolar temperature controller (TC-344B) and inline heater (SHM-8) were used. […] Temperatures were confirmed using a thermistor (Warner Instruments, TA-29), with temperatures at the recorded cell estimated to be within +/−2° C. of those reported.
(§4) IC50 of compounds was estimated by testing each compound at 5 micromolar and 500 nanomolar. […] IC50 for compounds between 500 nanomolar and 5 micromolar was similarly estimated. […]

[1] = Oral bioavailability pharmacokinetic study; assay type: in vivo; details: rat, plasma, PO versus IV
Protocol: The potency and pharmacokinetic (PK) properties of (a) the compound of Formula (Ia); and (b) comparator compound of Formula (III) were evaluated. Bioavailability was measured as well. A pharmacokinetic study was performed to obtain a plasma drug concentration vs time plot for the drug after both intravenous (IV) and oral (PO) administration. The absolute bioavailability is the dose-corrected area under curve (AUC) non-intravenous divided by AUC intravenous. The formula for calculating F for a drug administered by the oral route (PO) is given below.
The bioavailability was calculated using the equation shown below:
% F=AUC PO×Dose IV/AUC IV×Dose PO

[2] = system: airway hyper-responsiveness to Carbachol; experiment: Sheep allergic asthma model, airway hyper-responsiveness (PC400) to Carbachol; assay type: in vivo; details: 24 hour post-challenge Carbachol
Protocol: Compounds were tested in the sheep model of experimental asthma reported in Abraham W M, Asthma & Rhinitis, 2000: 1205-1227 incorporated herein by reference in its entirety.
The unsedated sheep were restrained in a cart in the prone position with their heads immobilized. After topical anesthesia of the nasal passages with 2% lidocaine solution, a balloon catheter was advanced through one nostril into the lower esophagus. The sheep were intubated with a cuffed endotracheal tube through the other nostril. Pleural pressure was estimated with the esophageal balloon catheter. Lateral pressure in the trachea was measured with a sidehole catheter (inner dimension, 2.5 mm) advanced through and positioned distal to the tip of the endotracheal tube. Transpulmonary pressure, the difference between tracheal and pleural pressure, was measured with a differential pressure transducer catheter system. For the measurement of pulmonary resistance (RL), the proximal end of the endotracheal tube was connected to a pneumotachograph. […]
Baseline concentration response curves to aerosol Carbachol were obtained 1 to 3 days before commencement of drug/vehicle treatment. […] Baseline values of pulmonary resistance (RL) were obtained within 30 minutes of treatment and then re-measured 30 minutes before antigen challenge. […]

hTRPA1 = hTRPA1 (Homo sapiens, UniProt O75762); experiment: Whole-cell patch clamp block of inward current through hTRPA1; assay type: cell-based
hTRPA1, sequence (O75762 whole entry): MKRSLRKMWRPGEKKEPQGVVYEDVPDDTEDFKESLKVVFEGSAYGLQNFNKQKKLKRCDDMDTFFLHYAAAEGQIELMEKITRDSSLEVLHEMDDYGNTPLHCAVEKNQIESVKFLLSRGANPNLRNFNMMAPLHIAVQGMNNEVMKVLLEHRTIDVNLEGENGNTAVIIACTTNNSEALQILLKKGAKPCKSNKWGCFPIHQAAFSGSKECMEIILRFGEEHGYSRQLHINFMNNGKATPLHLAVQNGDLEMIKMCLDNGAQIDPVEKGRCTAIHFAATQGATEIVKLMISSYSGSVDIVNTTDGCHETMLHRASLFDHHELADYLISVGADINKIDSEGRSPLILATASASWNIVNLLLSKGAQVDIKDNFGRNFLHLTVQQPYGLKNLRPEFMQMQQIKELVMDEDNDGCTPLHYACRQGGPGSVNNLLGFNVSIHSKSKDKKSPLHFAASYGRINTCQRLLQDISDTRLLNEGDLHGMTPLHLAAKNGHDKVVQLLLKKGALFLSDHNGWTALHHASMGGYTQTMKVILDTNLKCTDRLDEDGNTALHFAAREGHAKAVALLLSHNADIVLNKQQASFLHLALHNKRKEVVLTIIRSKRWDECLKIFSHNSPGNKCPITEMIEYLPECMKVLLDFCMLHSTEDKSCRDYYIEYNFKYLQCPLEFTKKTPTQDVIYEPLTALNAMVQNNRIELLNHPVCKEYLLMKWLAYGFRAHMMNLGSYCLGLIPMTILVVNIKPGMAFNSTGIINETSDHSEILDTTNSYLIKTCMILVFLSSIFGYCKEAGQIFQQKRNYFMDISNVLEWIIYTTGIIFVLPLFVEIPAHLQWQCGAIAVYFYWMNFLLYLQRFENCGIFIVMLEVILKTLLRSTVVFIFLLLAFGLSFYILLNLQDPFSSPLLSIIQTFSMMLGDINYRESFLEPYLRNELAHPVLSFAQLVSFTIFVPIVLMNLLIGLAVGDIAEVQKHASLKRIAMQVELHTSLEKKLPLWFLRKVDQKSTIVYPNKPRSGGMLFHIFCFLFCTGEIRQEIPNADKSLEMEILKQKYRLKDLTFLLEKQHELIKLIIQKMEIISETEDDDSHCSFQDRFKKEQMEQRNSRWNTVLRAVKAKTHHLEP
Protocol: as §1, §2, §3
IC50 of compounds was estimated by testing each compound at 5 micromolar and 500 nanomolar. […] IC50 for compounds between 500 nanomolar and 5 micromolar was similarly estimated. Compounds blocking 50% or more at 500 nanomolar are retested at multiple concentrations, and the % block at each is fitted by standard equations to determine IC50 accurately using a 5-6 point concentration/response experiment.

rTRPA1 = rTRPA1 (Rattus norvegicus, UniProt Q6RI86); experiment: Whole-cell patch clamp block of inward current through rTRPA1; assay type: cell-based
rTRPA1, sequence (Q6RI86 whole entry): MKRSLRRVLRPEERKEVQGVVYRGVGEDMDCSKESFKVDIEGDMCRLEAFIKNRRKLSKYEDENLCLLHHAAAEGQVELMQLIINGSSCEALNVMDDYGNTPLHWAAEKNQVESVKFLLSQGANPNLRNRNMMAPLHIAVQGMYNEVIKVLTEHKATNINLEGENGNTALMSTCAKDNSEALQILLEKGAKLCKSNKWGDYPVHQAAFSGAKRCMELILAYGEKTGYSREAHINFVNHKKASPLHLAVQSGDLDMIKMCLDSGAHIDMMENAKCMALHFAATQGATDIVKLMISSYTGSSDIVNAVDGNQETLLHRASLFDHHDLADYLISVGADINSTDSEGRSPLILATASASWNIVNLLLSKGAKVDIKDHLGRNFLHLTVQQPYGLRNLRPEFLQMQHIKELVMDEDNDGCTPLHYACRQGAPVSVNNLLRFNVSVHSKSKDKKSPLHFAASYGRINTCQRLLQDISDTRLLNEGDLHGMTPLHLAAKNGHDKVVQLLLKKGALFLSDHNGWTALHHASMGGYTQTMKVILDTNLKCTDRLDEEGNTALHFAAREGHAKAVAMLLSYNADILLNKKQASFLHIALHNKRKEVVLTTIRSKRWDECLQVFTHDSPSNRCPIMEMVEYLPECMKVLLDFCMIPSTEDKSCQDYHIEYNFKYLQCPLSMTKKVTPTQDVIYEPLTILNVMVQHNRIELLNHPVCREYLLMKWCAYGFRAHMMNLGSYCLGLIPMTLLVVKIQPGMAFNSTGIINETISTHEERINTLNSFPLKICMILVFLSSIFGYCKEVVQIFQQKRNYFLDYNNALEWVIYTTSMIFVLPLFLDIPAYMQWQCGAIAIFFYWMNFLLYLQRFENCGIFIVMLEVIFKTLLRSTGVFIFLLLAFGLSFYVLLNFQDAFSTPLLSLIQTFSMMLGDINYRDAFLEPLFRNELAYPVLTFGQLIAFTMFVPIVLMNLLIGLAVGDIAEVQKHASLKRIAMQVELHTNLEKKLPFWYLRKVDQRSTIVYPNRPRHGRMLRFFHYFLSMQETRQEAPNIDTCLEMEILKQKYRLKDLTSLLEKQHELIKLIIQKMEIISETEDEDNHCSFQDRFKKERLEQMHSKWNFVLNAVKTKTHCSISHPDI
Protocol: as §1, §2, §3, §4

dTRPA1, sequence (A0A8I3Q1Q7 1-1118): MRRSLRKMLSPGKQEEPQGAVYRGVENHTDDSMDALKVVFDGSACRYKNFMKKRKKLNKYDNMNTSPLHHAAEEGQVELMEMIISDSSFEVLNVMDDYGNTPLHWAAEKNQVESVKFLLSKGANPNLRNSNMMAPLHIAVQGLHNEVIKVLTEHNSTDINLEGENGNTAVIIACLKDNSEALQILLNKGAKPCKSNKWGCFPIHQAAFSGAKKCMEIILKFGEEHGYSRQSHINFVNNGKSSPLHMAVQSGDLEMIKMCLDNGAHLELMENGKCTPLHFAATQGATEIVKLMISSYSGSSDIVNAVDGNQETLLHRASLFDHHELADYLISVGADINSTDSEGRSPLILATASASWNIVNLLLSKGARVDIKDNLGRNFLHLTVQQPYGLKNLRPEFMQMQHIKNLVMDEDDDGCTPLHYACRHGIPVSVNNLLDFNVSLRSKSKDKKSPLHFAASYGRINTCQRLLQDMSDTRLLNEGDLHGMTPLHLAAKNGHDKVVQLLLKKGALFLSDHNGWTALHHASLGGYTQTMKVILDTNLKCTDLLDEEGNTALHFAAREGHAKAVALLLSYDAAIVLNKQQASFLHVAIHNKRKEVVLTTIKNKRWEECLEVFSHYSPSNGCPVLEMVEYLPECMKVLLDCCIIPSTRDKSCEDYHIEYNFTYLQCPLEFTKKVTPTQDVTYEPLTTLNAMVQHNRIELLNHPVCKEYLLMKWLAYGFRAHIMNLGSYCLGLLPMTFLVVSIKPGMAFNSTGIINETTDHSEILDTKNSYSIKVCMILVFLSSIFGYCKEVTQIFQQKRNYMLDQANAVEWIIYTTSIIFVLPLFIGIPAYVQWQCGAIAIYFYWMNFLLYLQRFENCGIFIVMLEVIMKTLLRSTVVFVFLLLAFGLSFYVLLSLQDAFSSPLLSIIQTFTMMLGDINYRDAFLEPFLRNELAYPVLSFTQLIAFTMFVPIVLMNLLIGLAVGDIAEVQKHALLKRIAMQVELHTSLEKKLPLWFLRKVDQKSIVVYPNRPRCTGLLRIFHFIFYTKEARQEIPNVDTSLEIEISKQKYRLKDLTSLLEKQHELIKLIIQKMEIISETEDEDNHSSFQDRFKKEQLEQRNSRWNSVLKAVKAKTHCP

**Q.** Which IC50 (dTRPA1; class symbol, read-out: Potency (IC50) Dog) does the source give for `C[C@H]1CCCN1c1ncc(-c2cccc(NC(=O)Cn3cnc4c3c(=O)n(C)c(=O)n4C)n2)cn1` [Formula (Ia)] here?
**A.** ≥ 0.1 µM

**Q.** What about the IC50 (dTRPA1; dTRPA1, Dog, current activation 10 micromolar AITC, read-out: IC50 Inward current) of the same compound?
**A.** 0.102 ± 0.02 µM

**Q.** What about the bioavailability ([1]; oral, fed rats, read-out: Bioavailability (Rat) Fed) of the same compound?
**A.** > 50%

**Q.** And the bioavailability ([1]; po, fasted rats, read-out: Bioavailability (Rat) Fasted)?
**A.** 25 to 50%

**Q.** What about the bioavailability ([1]; po, fed rats, read-out: Bioavailability (Rat) Fed) of the same compound?
**A.** > 50%

**Q.** And the “airway hyper-responsiveness (PC400), relative to baseline” value ([2]; 5 mg/kg PO)?
**A.** 100%

**Q.** And the “airway hyper-responsiveness (PC400), relative to baseline” value ([2]; 10 mg/kg PO)?
**A.** 100%

**Q.** And the IC50 (hTRPA1; hTRPA1, Human, current activation 10 micromolar AITC, whole cell patch, read-out: IC50 Inward current)?
**A.** 0.093 ± 0.022 µM

**Q.** And the IC50 (hTRPA1; hTRPA1, class symbol, read-out: Potency (IC50) Human)?
**A.** 0.05 to 0.1 µM

**Q.** And the “selectivity for block of TRPA1 over all other tested channels” value (hTRPA1; versus the eight channels of Table 2)?
**A.** at least 100 fold

**Q.** And the IC50 (rTRPA1; class symbol, read-out: Potency (IC50) Rat)?
**A.** ≥ 0.1 µM

**Q.** What about the IC50 (rTRPA1; rTRPA1, Rat, current activation 10 micromolar AITC, read-out: IC50 Inward current) of the same compound?
**A.** 0.101 ± 0.008 µM
